Legend:
Capivasertib = compound: C1CN(CCC1(C(=O)N[C@@H](CCO)C2=CC=C(C=C2)Cl)N)C3=NC=NC4=C3C=CN4 [Capivasertib]; conditions: max 10 µM
How it was run: (§1)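 In 1536-well plates, cancer cell lines in 7.5 μl DMEM/F12 or RPMI with 10% FBS spent 24 hours at 37°C and 5% CO2 and were then dosed for 72 hours with final DMSO typically 0.2%. Viability was read by CellTiter-Glo 2.0 luminescence and scaled between blank-well and DMSO-well means. The single-agent IC50 was fitted from dose responses using a logistic curve in a non-linear mixed effects model, and that logistic curve had two parameters.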

AZD1775 = compound: C=CCn1c(=O)c2cnc(Nc3ccc(N4CCN(C)CC4)cc3)nc2n1-c1cccc(C(C)(C)O)n1 [AZD1775]; conditions: max 3 µM
How it was run: as §1

Trametinib = compound: CC(=O)Nc1cccc(-n2c(=O)n(C3CC3)c(=O)c3c(Nc4ccc(I)cc4F)n(C)c(=O)c(C)c32)c1 [Trametinib]; conditions: max 1 µM
How it was run: as §1

Palbociclib = compound: CC(=O)c1c(C)c2cnc(Nc3ccc(N4CCNCC4)cn3)nc2n(C2CCCC2)c1=O [Palbociclib]; conditions: max 10 µM
How it was run: as §1

AZD1390 = compound: CC(C)n1c(=O)n(C)c2cnc3cc(F)c(-c4ccc(OCCCN5CCCCC5)nc4)cc3c21 [AZD1390]; conditions: max 0.3 µM
How it was run: as §1

Venetoclax = compound: CC1(C)CCC(CN2CCN(c3ccc(C(=O)NS(=O)(=O)c4ccc(NCC5CCOCC5)c([N+](=O)[O-])c4)c(Oc4cnc5[nH]ccc5c4)c3)CC2)=C(c2ccc(Cl)cc2)C1 [Venetoclax]; conditions: max 1 µM
How it was run: as §1

Dasatinib = compound: CC1=C(C(=CC=C1)Cl)NC(=O)C2=CN=C(S2)NC3=CC(=NC(=N3)C)N4CCN(CC4)CCO [Dasatinib]; conditions: max 2 µM
How it was run: as §1

SG3199 = compound: CC1=CN2[C@@H](C1)C=NC3=CC(=C(C=C3C2=O)OC)OCCCCCOC4=C(C=C5C(=C4)N=C[C@@H]6CC(=CN6C5=O)C)OC [SG3199]; conditions: max 0.001 µM
How it was run: as §1

AZD2811 = compound: CCN(CCO)CCCOc1ccc2c(Nc3cc(CC(=O)Nc4cccc(F)c4)[nH]n3)ncnc2c1 [AZD2811]; conditions: max 1 µM
How it was run: as §1

SN-38 = compound: CCc1c2c(nc3ccc(O)cc13)-c1cc3c(c(=O)n1C2)COC(=O)[C@]3(O)CC [SN-38]; conditions: max 0.3 µM
How it was run: as §1

AZD0156 = compound: CN(C)CCCOc1ccc(-c2ccc3ncc4c(c3c2)n(C2CCOCC2)c(=O)n4C)cn1 [AZD0156]; conditions: max 3 µM
How it was run: as §1

AZD4320 = compound: CN(CC[C@H](CSC1=CC=CC=C1)NC2=C(C=C(C=C2)S(=O)(=O)NC(=O)C3=CC=C(C=C3)N4CCC(CC4)[C@H](C5=CC=CC=C5C6=CC=C(C=C6)Cl)O)S(=O)(=O)C(F)(F)F)CCO [AZD4320]; conditions: max 1 µM
How it was run: as §1

Alisertib = compound: COc1cc(Nc2ncc3c(n2)-c2ccc(Cl)cc2C(c2c(F)cccc2OC)=NC3)ccc1C(=O)O [Alisertib]; conditions: max 10 µM
How it was run: as §1

Gefitinib = compound: COc1cc2ncnc(Nc3ccc(F)c(Cl)c3)c2cc1OCCCN1CCOCC1 [Gefitinib]; conditions: max 10 µM
How it was run: as §1

Prexasertib = compound: COc1cccc(OCCCN)c1-c1cc(Nc2cnc(C#N)cn2)n[nH]1 [Prexasertib]; conditions: max 1 µM
How it was run: as §1

Doxorubicin = compound: COc1cccc2c1C(=O)c1c(O)c3c(c(O)c1C2=O)C[C@@](O)(C(=O)CO)C[C@@H]3O[C@H]1C[C@H](N)[C@H](O)[C@H](C)O1 [Doxorubicin]; conditions: max 1 µM
How it was run: as §1

AZD5153 = compound: COc1nnc2ccc(N3CCC(c4ccc(OCCN5CCN(C)C(=O)[C@H]5C)cc4)CC3)nn12 [AZD5153]; conditions: max 1 µM
How it was run: as §1

Lapatinib = compound: CS(=O)(=O)CCNCc1ccc(-c2ccc3ncnc(Nc4ccc(OCc5cccc(F)c5)c(Cl)c4)c3c2)o1 [Lapatinib]; conditions: max 10 µM
How it was run: as §1

AZD8186 = compound: C[C@@H](Nc1cc(F)cc(F)c1)c1cc(C(=O)N(C)C)cc2c(=O)cc(N3CCOCC3)oc12 [AZD8186]; conditions: max 3 µM
How it was run: as §1

Crizotinib = compound: C[C@@H](Oc1cc(-c2cnn(C3CCNCC3)c2)cnc1N)c1c(Cl)ccc(F)c1Cl [Crizotinib]; conditions: max 10 µM
How it was run: as §1

Savolitinib = compound: C[C@@H](c1ccc2nccn2c1)n1nnc2ncc(-c3cnn(C)c3)nc21 [Savolitinib]; conditions: max 1 µM
How it was run: as §1

AZD6738 = compound: C[C@@H]1COCCN1C2=NC(=NC(=C2)C3(CC3)[S@](=N)(=O)C)C4=C5C=CNC5=NC=C4 [AZD6738]; conditions: max 10 µM
How it was run: as §1

AZD5991 = compound: Cc1c2c(nn1C)CSCc1cc(n(C)n1)CSc1cc(c3ccccc3c1)OCCCc1c(C(=O)O)n(C)c3c-2c(Cl)ccc13 [AZD5991]; conditions: max 1 µM
How it was run: as §1

AZD7648 = compound: Cc1cc2ncnn2cc1Nc1ncc2c(n1)n(C1CCOCC1)c(=O)n2C [AZD7648]; conditions: max 10 µM
How it was run: as §1

Taselisib = compound: Cc1nc(-c2cn3c(n2)-c2ccc(-c4cnn(C(C)(C)C(N)=O)c4)cc2OCC3)n(C(C)C)n1 [Taselisib]; conditions: max 10 µM
How it was run: as §1

Selumetinib = compound: Cn1cnc2c(F)c(Nc3ccc(Br)cc3Cl)c(C(=O)NOCCO)cc21 [Selumetinib]; conditions: max 10 µM
How it was run: as §1

Olaparib = compound: O=C(c1cc(Cc2n[nH]c(=O)c3ccccc23)ccc1F)N1CCN(C(=O)C2CC2)CC1 [Olaparib]; conditions: max 10 µM
How it was run: as §1

MK-2206 = compound: NC1(c2ccc(-c3nc4ccn5c(=O)[nH]nc5c4cc3-c3ccccc3)cc2)CCC1 [MK-2206]; conditions: max 10 µM
How it was run: as §1

Cell Line | IC50, cell viability 72 h (Capivasertib) | IC50, cell viability 72 h (AZD1775) | IC50, cell viability 72 h (Trametinib) | IC50, cell viability 72 h (Palbociclib) | IC50, cell viability 72 h (AZD1390) | IC50, cell viability 72 h (Venetoclax) | IC50, cell viability 72 h (Dasatinib) | IC50, cell viability 72 h (SG3199) | IC50, cell viability 72 h (AZD2811) | IC50, cell viability 72 h (SN-38) | IC50, cell viability 72 h (AZD0156) | IC50, cell viability 72 h (AZD4320) | IC50, cell viability 72 h (Alisertib) | IC50, cell viability 72 h (Gefitinib) | IC50, cell viability 72 h (Prexasertib) | IC50, cell viability 72 h (Doxorubicin) | IC50, cell viability 72 h (AZD5153) | IC50, cell viability 72 h (Lapatinib) | IC50, cell viability 72 h (AZD8186) | IC50, cell viability 72 h (Crizotinib) | IC50, cell viability 72 h (Savolitinib) | IC50, cell viability 72 h (AZD6738) | IC50, cell viability 72 h (AZD5991) | IC50, cell viability 72 h (AZD7648) | IC50, cell viability 72 h (Taselisib) | IC50, cell viability 72 h (Selumetinib) | IC50, cell viability 72 h (Olaparib) | IC50, cell viability 72 h (MK-2206)
ALL-SIL (T-Lymphoblastic Leukemia) | > 10 µM | 0.449 µM | > 1 µM | > 10 µM | > 0.3 µM | 0.257 µM | < 0.002 µM | > 0.001 µM | 0.00494 µM | 0.00152 µM | > 3 µM | 0.00978 µM | 0.0447 µM | > 10 µM | 0.00565 µM | 0.146 µM | 0.237 µM | > 10 µM | > 3 µM | 0.244 µM | > 1 µM | 1.43 µM | 0.141 µM | > 10 µM | 6.05 µM | > 10 µM | > 10 µM | 
HCC1500 (Breast Carcinoma) | > 10 µM | 2.9 µM | > 1 µM | > 10 µM | > 0.3 µM | 0.291 µM | > 2 µM | > 0.001 µM | > 1 µM | 0.213 µM | > 3 µM | 0.0452 µM | > 10 µM | > 10 µM | > 1 µM | > 1 µM | > 1 µM | > 10 µM | > 3 µM | > 10 µM | > 1 µM | > 10 µM | > 1 µM | > 10 µM | > 10 µM | > 10 µM | > 10 µM | > 10 µM
KOPN-8 (B-Lymphoblastic Leukemia) | 4.98 µM | 0.314 µM | 0.0369 µM | 2.62 µM | > 0.3 µM | 0.05 µM | > 2 µM | > 0.001 µM | 0.0377 µM | 0.0027 µM | > 3 µM | 0.011 µM | 0.0234 µM | > 10 µM | 0.0198 µM | 0.106 µM | 0.0285 µM | > 10 µM | > 3 µM | 2.77 µM | > 1 µM | 0.725 µM | 0.0434 µM | > 10 µM | > 10 µM | 6.21 µM | 6.85 µM | 8.59 µM
HCC2998 (Colorectal Carcinoma) | > 10 µM | 0.981 µM | 0.0141 µM | > 10 µM | > 0.3 µM | > 1 µM | > 2 µM | > 0.001 µM | > 1 µM | 0.144 µM | > 3 µM | 0.485 µM | > 10 µM | > 10 µM | 0.0188 µM | 0.389 µM | 0.314 µM | > 10 µM | > 3 µM | > 10 µM | > 1 µM | 3.12 µM | 0.259 µM | > 10 µM | 5.39 µM | 0.382 µM | > 10 µM | 
EW-1 (Ewing's Sarcoma) | > 10 µM | 0.294 µM | > 1 µM | 5.21 µM | > 0.3 µM | > 1 µM | > 2 µM | > 0.001 µM | > 1 µM | 0.00454 µM | > 3 µM | 0.586 µM | 4.9 µM | > 10 µM | 0.0109 µM | 0.317 µM | 0.357 µM | > 10 µM | > 3 µM | 2.04 µM | > 1 µM | 2.48 µM | > 1 µM | > 10 µM | 0.64 µM | > 10 µM | 6.67 µM | 
NCI-H2122 (Lung Adenocarcinoma) | 4.95 µM | 0.547 µM | 0.0138 µM | 1.91 µM | > 0.3 µM | > 1 µM | > 2 µM | > 0.001 µM | 0.347 µM | 0.0405 µM | > 3 µM | > 1 µM | 0.065 µM | 5.67 µM | 0.0291 µM | > 1 µM | 0.115 µM | 6.23 µM | > 3 µM | 1.92 µM | > 1 µM | 1.14 µM | > 1 µM | > 10 µM | 0.373 µM | 0.496 µM | > 10 µM | 
NCI-H1092 (Small Cell Lung Carcinoma) | > 10 µM | 2.94 µM | > 1 µM | > 10 µM | > 0.3 µM | > 1 µM | > 2 µM | > 0.001 µM | > 1 µM | > 0.3 µM | > 3 µM | 0.152 µM | > 10 µM | > 10 µM | 0.144 µM | > 1 µM | > 1 µM | > 10 µM | > 3 µM | > 10 µM | > 1 µM | > 10 µM | 0.819 µM | > 10 µM | > 10 µM | > 10 µM | > 10 µM | > 10 µM

From the supplement of paper PMC11061612
